These are literature values, as cited in patent publication US20090010992A1 (priority 2007, published 2009).

The conditions of the data set: oral cherry-flavored syrup (Versed syrup).

Regarding `Cc1ncc2n1-c1ccc(Cl)cc1C(c1ccccc1F)=NC2` [midazolam], the “bioavailability (erratic)” value is recorded as 30-50%.
